Some test systems named below: BT-549 breast; MOLT-4 leukemia; NCI-H23 lung; OVCAR-3 ovarian; RXF 393 renal; SF-268 CNS; SF-539 CNS; SK-MEL-5 melanoma; SR leukemia; TK-10 renal.
Assay in all cases: NCI-60 cell line screen, 48 h

We go through 13 molecules from PubChem BioAssay (NCI).

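Step 1: Grow cells in 96-well plates. Step 2: Expose to compound for 48 hours at 5 concentrations. Step 3: Interpolate endpoints linearly; if unreached, use highest concentration. The concentration for full growth arrest is given as TGI.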 Some results are limits rather than exact numbers.

Turning to `O=[N+]([O-])c1cc(F)ccc1S(=O)(=O)c1ccccc1`, the TGI in the assay with BT-549 breast, in the assay with MOLT-4 leukemia, in the assay with NCI-H23 lung, in the assay on OVCAR-3 ovarian, in the assay on RXF 393 renal and in the assay on SF-268 CNS was more than 10 µM in each case. Moreover, the TGI with SF-539 CNS, with SK-MEL-5 melanoma, with SR leukemia and in the assay with TK-10 renal was more than 10 µM each time.
Take `COC1=C(Cl)C(=O)c2c(O)ccc(O)c2C1=O`: the TGI in the assay on BT-549 breast was 3.31 µM; in the assay with MOLT-4 leukemia, 0.489 µM; with NCI-H23 lung, 4.62 µM; with OVCAR-3 ovarian, 1.04 µM; in the assay with RXF 393 renal it was 2.69 µM; in the assay on SF-268 CNS it was 6.25 µM. Further, the TGI with SF-539 CNS is 1.53 µM; in the assay on SK-MEL-5 melanoma, 2.75 µM; in the assay with SR leukemia, 1.3 µM; in the assay with TK-10 renal, 2.4 µM.
Turning to `CCOC1NC(=O)Oc2cc3ccccc3cc21` (stereo not given), the TGI in the assay with BT-549 breast, with MOLT-4 leukemia, with NCI-H23 lung, with OVCAR-3 ovarian, with RXF 393 renal and in the assay on SF-268 CNS was more than 100 µM each time. For the same molecule, the TGI in the assay on SF-539 CNS, in the assay with SK-MEL-5 melanoma, in the assay on SR leukemia and with TK-10 renal was more than 100 µM in each case.
For `CC(C)(C)NC(=O)/C(=C\Sc1ccccc1)c1ccccc1`, the TGI is more than 100 µM in the assay with BT-549 breast; more than 100 µM in the assay with MOLT-4 leukemia; more than 100 µM in the assay on NCI-H23 lung; more than 100 µM in the assay on OVCAR-3 ovarian; more than 100 µM in the assay on RXF 393 renal; more than 87.8 µM with SF-268 CNS. In addition, the TGI in the assay with SF-539 CNS, with SK-MEL-5 melanoma, in the assay with SR leukemia and in the assay with TK-10 renal was more than 100 µM each time.
Turning to `S=c1nc(N/N=C/c2cccs2)c2cn[nH]c2[nH]1`, the TGI was more than 100 µM with BT-549 breast; 66 µM in the assay on MOLT-4 leukemia; 66.4 µM with NCI-H23 lung; 34.1 µM in the assay on OVCAR-3 ovarian; more than 100 µM in the assay on RXF 393 renal; more than 100 µM in the assay with SF-268 CNS. The TGI was more than 100 µM in the assay on SF-539 CNS, more than 100 µM in the assay on SK-MEL-5 melanoma, 37.2 µM in the assay on SR leukemia and 49.3 µM in the assay on TK-10 renal.
For `COC(=O)C(Cc1c[nH]c2ccccc12)NP(=O)(O)OCC1OC(n2cc(Br)c(=O)[nH]c2=O)CC1O` (stereo not given), the TGI in the assay with BT-549 breast, with MOLT-4 leukemia, in the assay on NCI-H23 lung, with OVCAR-3 ovarian, with RXF 393 renal and in the assay with SF-268 CNS was more than 100 µM in each case. In addition, the TGI in the assay with SF-539 CNS, with SK-MEL-5 melanoma, with SR leukemia and in the assay on TK-10 renal was more than 100 µM in each case.
In the case of `O=c1[nH]c2nccn2c2c1SCCN2`, the TGI with BT-549 breast, in the assay with MOLT-4 leukemia, with NCI-H23 lung, in the assay on OVCAR-3 ovarian, in the assay with RXF 393 renal and in the assay with SF-268 CNS was more than 100 µM throughout. The TGI in the assay with SF-539 CNS, in the assay on SK-MEL-5 melanoma, with SR leukemia and in the assay on TK-10 renal was more than 100 µM in each case.
As for `COc1cccc2cc(C(=O)Nc3ccccc3)c(=N)oc12`, the TGI with BT-549 breast, in the assay on MOLT-4 leukemia, with NCI-H23 lung, in the assay with OVCAR-3 ovarian, with RXF 393 renal and in the assay with SF-268 CNS was more than 100 µM throughout. The TGI with SF-539 CNS, in the assay with SK-MEL-5 melanoma, with SR leukemia and in the assay with TK-10 renal was more than 100 µM throughout.
Consider `O=C(C/C(=N/O)C(F)(F)F)c1cccs1`, for which the TGI in the assay on BT-549 breast, in the assay on MOLT-4 leukemia, with NCI-H23 lung, in the assay with OVCAR-3 ovarian, in the assay with RXF 393 renal and in the assay on SF-268 CNS was more than 100 µM each time. Further, the TGI in the assay on SF-539 CNS, with SK-MEL-5 melanoma, in the assay with SR leukemia and in the assay on TK-10 renal was more than 100 µM in each case.
As for `O=[N+]([O-])c1cc2ccc(N(CCO)CCO)nc2nc1N(CCO)CCO`, the TGI in the assay with BT-549 breast, in the assay on MOLT-4 leukemia, in the assay with NCI-H23 lung, in the assay on OVCAR-3 ovarian, in the assay on RXF 393 renal and with SF-268 CNS was more than 100 µM in each case. For the same molecule, the TGI in the assay with SF-539 CNS, in the assay with SK-MEL-5 melanoma, in the assay on SR leukemia and with TK-10 renal was more than 100 µM in each case.
Take `Nn1c(=O)[nH]c2ncn(Cc3ccccc3)c2c1=O`: the TGI in the assay on BT-549 breast, in the assay with MOLT-4 leukemia, in the assay with NCI-H23 lung, with OVCAR-3 ovarian, in the assay on RXF 393 renal and in the assay on SF-268 CNS was more than 100 µM in each case. Besides, the TGI with SF-539 CNS, in the assay on SK-MEL-5 melanoma, in the assay with SR leukemia and in the assay with TK-10 renal was more than 100 µM each time.
Consider `CCC(CC)(CO)CNc1cc(Cl)nc(N)n1`, for which the TGI with BT-549 breast, in the assay on MOLT-4 leukemia, with NCI-H23 lung, with OVCAR-3 ovarian, with RXF 393 renal and with SF-268 CNS was more than 100 µM throughout. Further, the TGI in the assay with SF-539 CNS, in the assay with SK-MEL-5 melanoma, in the assay on SR leukemia and with TK-10 renal was more than 100 µM throughout.
In the case of `Cc1[nH]c2ccccc2c1/C=N/NC(=O)c1cccc(I)c1`, the TGI with BT-549 breast is 61.5 µM; in the assay on MOLT-4 leukemia, 60.9 µM; in the assay on NCI-H23 lung, 53.5 µM; in the assay with OVCAR-3 ovarian, 41.2 µM; with RXF 393 renal, 36.3 µM; with SF-268 CNS it was more than 100 µM. The TGI came out at 38.2 µM with SF-539 CNS, 29.1 µM in the assay with SK-MEL-5 melanoma, 44.5 µM in the assay on SR leukemia and 87.7 µM with TK-10 renal.
